Experimental data as given in US20050239656A1, “Pyridine compounds or salts thereof and herbicides containing the same” (priority 2002, published 2005).

Columns and labels:
[1] = system: barnyardgrass; assay: Test Example 3: paddy pot test, application under submerged conditions; assay type: in vivo, Echinochloa crus-galli L.; conditions: submerged application at 0.5 leaf stage, visually observed 14 days after application, 0 = non-treated, 100 = complete kill
How it was run: (§1)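 Visual growth-control rating (0 = untreated, 100 = complete kill) 14 days after treatment. The formulated compound, as a diluted wettable powder or emulsifiable concentrate, went into 3–4 cm flood water at a predetermined active-ingredient dose once the weeds reached 0.5 leaf stage (wapato: primary leaf stage).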

[2] = system: japanese bulrush; assay: as above; assay type: in vivo, Scirpus juncoides; conditions: submerged application at 0.5 leaf stage, visually observed 14 days after application, 0 = non-treated, 100 = complete kill
How it was run: as §1

[3] = system: japanese ribbon wapato; assay: as above; assay type: in vivo, Sagittaria pygniaea; conditions: submerged application at primary leaf stage, visually observed 14 days after application, 0 = non-treated, 100 = complete kill
How it was run: as §1

[4] = system: rice (var. Nihonbare); assay: Test Example 3: paddy pot test, transplanted rice; assay type: in vivo, Oryza sativa L.; conditions: applied 4th day after transplantation, visually observed 21st day after application, 0 = non-treated, 100 = complete kill
How it was run: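 Rice (var. Nihonbare) at 2 leaf stage transplanted 3 cm deep into puddled paddy soil under 3–4 cm flooding; on day 4 after transplanting, diluted wettable powder or emulsifiable concentrate applied by pipette under submerged conditions at a set active-ingredient dose. Growth scored visually 21 days after application, 0 (untreated) to 100 (complete kill) %.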

[5] = system: barnyardgrass; assay: Test Example 1: foliage treatment, upland pot test; assay type: in vivo, Echinochloa crus-galli L.; conditions: active ingredient 1000 g/ha, observed 18th to 23rd day, 0 = non-treated, 100 = complete kill
How it was run: (§2)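 Upland pot test, foliar. Soybean 0.1–0.4 / wheat 1.3–2.4 / rice 1.2–2.6 / barnyardgrass 1.3–2.8 leaf stage at spraying; 500 L/ha carrier, 0.1% (v/v) spreader. Visual % control, 0 untreated to 100 dead, days 18–23.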

[6] = system: crabgrass; assay: Test Example 1: foliage treatment, upland pot test; assay type: in vivo, Digitaria sanguinalis L.; conditions: active ingredient 1000 g/ha, observed 18th to 23rd day, 0 = non-treated, 100 = complete kill
[7] = system: green foxtail; assay: Test Example 1: foliage treatment, upland pot test; assay type: in vivo, Setaria viridis L.; conditions: active ingredient 1000 g/ha, observed 18th to 23rd day, 0 = non-treated, 100 = complete kill
[8] = system: redroot pigweed; assay: Test Example 1: foliage treatment, upland pot test; assay type: in vivo, Amaranthus retroflexus L.; conditions: active ingredient 1000 g/ha, observed 18th to 23rd day, 0 = non-treated, 100 = complete kill
[9] = system: prickly sida; assay: Test Example 1: foliage treatment, upland pot test; assay type: in vivo, Sida spinosa L.; conditions: active ingredient 1000 g/ha, observed 18th to 23rd day, 0 = non-treated, 100 = complete kill
[10] = system: velvetleaf; assay: Test Example 1: foliage treatment, upland pot test; assay type: in vivo, Abutilon theophrasti MEDIC.; conditions: active ingredient 1000 g/ha, observed 18th to 23rd day, 0 = non-treated, 100 = complete kill
[11] = system: rice; assay: Test Example 1: foliage treatment, upland pot test; assay type: in vivo, Oryza sativa L.; conditions: crop, active ingredient 1000 g/ha, observed 18th to 23rd day, 0 = non-treated, 100 = complete kill
How it was run: as §2

[12] = system: wheat; assay: Test Example 1: foliage treatment, upland pot test; assay type: in vivo, Triticum spp.; conditions: crop, active ingredient 1000 g/ha, observed 18th to 23rd day, 0 = non-treated, 100 = complete kill
How it was run: as §2

[13] = system: corn; assay: Test Example 1: foliage treatment, upland pot test; assay type: in vivo, Zea mays L.; conditions: crop, active ingredient 1000 g/ha, observed 18th to 23rd day, 0 = non-treated, 100 = complete kill
How it was run: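 In this upland pot foliage test, corn plants at 2.1 to 3.2 leaf stages were sprayed by a small size sprayer. The spray was a conventionally formulated wettable powder or emulsifiable concentrate weighed to a set active ingredient amount, diluted in water at 500 L/ha, plus 0.1% (v/v) agricultural spreader. Visual assessment on days 18 to 23 gave growth controlling degree (%), where 0 equals untreated and 100 means complete kill.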

[14] = system: soybean; assay: Test Example 1: foliage treatment, upland pot test; assay type: in vivo, Glycine max Merr.; conditions: crop, active ingredient 1000 g/ha, observed 18th to 23rd day, 0 = non-treated, 100 = complete kill
How it was run: as §2

[15] = system: barnyardgrass; assay: Test Example 2: soil surface treatment, upland pot test; assay type: in vivo, Echinochloa crus-galli L.; conditions: active ingredient 1000 g/ha, observed 20th to 28th day, 0 = non-treated, 100 = complete kill
How it was run: (§3)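 Seeds were sown in upland field soil in 1/170,000 ha pots. One day later, a wettable powder or emulsifiable concentrate at a predetermined active-ingredient rate, diluted in water at 1,500 L/ha, was sprayed onto the soil surface. Growth control (%) was scored visually 20–28 days after application (0 = untreated, 100 = complete kill).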

[16] = system: crabgrass; assay: as above; assay type: in vivo, Digitaria sanguinalis L.; conditions: active ingredient 1000 g/ha, observed 20th to 28th day
How it was run: as §3

[17] = system: green foxtail; assay: as above; assay type: in vivo, Setaria viridis L.; conditions: active ingredient 1000 g/ha, observed 20th to 28th day
How it was run: as §3

[18] = system: redroot pigweed; assay: as above; assay type: in vivo, Amaranthus retroflexus L.; conditions: active ingredient 1000 g/ha, observed 20th to 28th day
How it was run: as §3

[19] = system: prickly sida; assay: as above; assay type: in vivo, Sida spinosa L.; conditions: active ingredient 1000 g/ha, observed 20th to 28th day
How it was run: as §3

[20] = system: velvetleaf; assay: as above; assay type: in vivo, Abutilon theophrasti MEDIC.; conditions: active ingredient 1000 g/ha, observed 20th to 28th day
How it was run: as §3

[21] = system: rice; assay: as above; assay type: in vivo, Oryza sativa L.; conditions: active ingredient 1000 g/ha, observed 20th to 28th day
How it was run: as §3

[22] = system: wheat; assay: as above; assay type: in vivo, Triticum spp.; conditions: active ingredient 1000 g/ha, observed 20th to 28th day
How it was run: as §3

[23] = system: corn; assay: as above; assay type: in vivo, Zea mays L.; conditions: active ingredient 1000 g/ha, observed 20th to 28th day
How it was run: as §3

[24] = system: soybean; assay: as above; assay type: in vivo, Glycine max Merr.; conditions: active ingredient 1000 g/ha, observed 20th to 28th day
How it was run: as §3

[25] = system: tall morningglory; assay: Test Example 1: foliage treatment, upland pot test; assay type: in vivo, Ipomoea purpurea L.; conditions: active ingredient 1000 g/ha, observed 18th to 23rd day, 0 = non-treated, 100 = complete kill
From the text: Upland field soil was put into a 1/170,000 ha pot, and seed of various plants were sown. Then, when the plants reached predetermined leaf stages ((1) barnyardgrass: 1.3 to 2.8 leaf stages, (2) crabgrass: 1.0 to 2.8 leaf stages, (3) green foxtail: 1.3 to 2.6 leaf stages, (4) redroot pigweed: 0.1 to 1.2 leaf stages, (5) prickly sida: 0.1 to 1.2 leaf stages, (6) velvetleaf: 0.1 to 1.2 leaf stages, (7) tall morningglory: 0.1 to 1.5 leaf stages, (8) rice: 1.2 to 2.6 leaf stages, (9) wheat: 1.3 to 2.4 leaf stages, (10) corn, 2.1 to 3.2 leaf stages, (11) soybean: 0.1 to 0.4 leaf stage), a wettable powder or emulsifiable concentrate having the compound of the present invention formulated in accordance with a usual formulation method, was weighed so that the active ingredient would be a predetermined amount, and diluted with water in an amount of 500 L/ha. To the diluted solution, 0.1% (v/v) of agricultural spreader was added. The herbicide thus adjusted was applied by a small size sprayer for foliage treatment. On the 18th to 23rd days after the application of the herbicide, the growth of the respective plants was visually observed, and the herbicidal effects were evaluated by the growth controlling degrees (%) ranging from 0 (equivalent to the non-treated plot) to 100 (complete kill), whereby the results shown in Table 3, were obtained.

| SMILES | Growth controlling degree (%) Barnyardgrass [5] [%] | Growth controlling degree (%) Crabgrass [6] [%] | Growth controlling degree (%) Green foxtail [7] [%] | Growth controlling degree (%) Redroot pigweed [8] [%] | Growth controlling degree (%) Prickly sida [9] [%] | Growth controlling degree (%) Velvetleaf [10] [%] | Growth controlling degree (%) Rice [11] [%] | Growth controlling degree (%) wheat [12] [%] | Growth controlling degree (%) Corn [13] [%] | Growth controlling degree (%) Soybean [14] [%] | Growth controlling degree (%) Barnyardgrass [15] [%] | Growth controlling degree (%) Crabgrass [16] [%] | Growth controlling degree (%) Green foxtail [17] [%] | Growth controlling degree (%) Redroot pigweed [18] [%] | Growth controlling degree (%) Prickly sida [19] [%] | Growth controlling degree (%) Velvetleaf [20] [%] | Growth controlling degree (%) Rice [21] [%] | Growth controlling degree (%) wheat [22] [%] | Growth controlling degree (%) Corn [23] [%] | Growth controlling degree (%) Soyabean [24] [%] | further results |
| --- | --- | --- | --- | --- | --- | --- | --- | --- | --- | --- | --- | --- | --- | --- | --- | --- | --- | --- | --- | --- | --- |
| CCN(C(=O)Cc1c(F)cccc1F)C(c1cnccc1C(F)(F)F)C(C)C (centres unmarked) [I-30, N-ethyl-N-[2-methyl-1-(4-trifluoromethylpyridin-3-yl)propyl]2,6-difluorophenylacetamide] |  |  |  |  |  |  |  |  |  |  |  |  |  |  |  |  |  |  |  |  | Growth controlling degree (%) Barnyardgrass ([1]; active ingredient 250 g/ha): 100%; Growth controlling degree (%) Japanese bulrush ([2]; active ingredient 250 g/ha): 90%; Growth controlling degree (%) Japanese ribbon wapato ([3]; active ingredient 250 g/ha): 80%; Growth controlling degree (%) Rice ([4]; active ingredient 250 g/ha): 0%; melting point: 121.9 °C |
| CC(C)C(c1cnccc1C(F)(F)F)N(C)C(=O)Cc1ccccc1 (centres unmarked) [I-1, N-methyl-N-[2-methyl-1-(4-trifluoromethylpyridin-3-yl)propyl]phenylacetamide] | 80 | 80 | 70 | 70 | 80 | 90 | 60 | 60 | 70 | 80 | 90 | 100 | 100 | 80 | 70 | 80 | 80 | 50 | 70 | 50 | Growth controlling degree (%) Japanese bulrush ([2]; active ingredient 500 g/ha): 98%; Growth controlling degree (%) Japanese ribbon wapato ([3]; active ingredient 500 g/ha): 95%; Growth controlling degree (%) Rice ([4]; active ingredient 500 g/ha): 60%; melting point: 71.2 °C |
| CCC(=O)N(CC)C(c1cnccc1C(F)(F)F)c1cccc2ccccc12 (centres unmarked) [I-44] | 60 | 80 | 70 | 70 | 80 | 95 | 10 | 20 | 10 | 50 | 80 | 90 | 100 | 0 | 0 | 0 | 40 | 40 | 10 | 0 | Growth controlling degree (%) Tall morningglory [25]: 90%; Growth controlling degree (%) Barnyardgrass ([1]; active ingredient 500 g/ha): 90%; Growth controlling degree (%) Japanese bulrush ([2]; active ingredient 500 g/ha): 95%; Growth controlling degree (%) Japanese ribbon wapato ([3]; active ingredient 500 g/ha): 100%; Growth controlling degree (%) Rice ([4]; active ingredient 500 g/ha): 30% |
| CC(C)C(c1cnccc1C(F)(F)F)N(C)C(=O)Cc1cccc(Br)c1 (centres unmarked) [I-16] | 70 | 80 | 70 | 80 | 80 | 80 | 10 | 40 | 0 | 70 | 98 | 100 | 100 | 95 | 80 | 60 | 30 | 30 | 30 | 0 | Growth controlling degree (%) Tall morningglory [25]: 80%; Growth controlling degree (%) Barnyardgrass ([1]; active ingredient 250 g/ha): 100%; Growth controlling degree (%) Japanese bulrush ([2]; active ingredient 250 g/ha): 90%; Growth controlling degree (%) Japanese ribbon wapato ([3]; active ingredient 250 g/ha): 30%; Growth controlling degree (%) Rice ([4]; active ingredient 250 g/ha): 10% |
| COC(=O)N(C)C(c1cnccc1C(F)(F)F)c1cccc2ccccc12 (centres unmarked) [I-46] | 80 | 95 | 50 | 90 | 80 | 95 | 30 | 30 | 40 | 95 | 100 | 90 | 95 | 10 | 60 | 50 | 10 | 30 | 10 | 0 | Growth controlling degree (%) Tall morningglory [25]: 95%; Growth controlling degree (%) Barnyardgrass ([1]; active ingredient 500 g/ha): 100%; Growth controlling degree (%) Japanese bulrush ([2]; active ingredient 500 g/ha): 100%; Growth controlling degree (%) Japanese ribbon wapato ([3]; active ingredient 500 g/ha): 90%; Growth controlling degree (%) Rice ([4]; active ingredient 500 g/ha): 10% |
